Measurements reported in patent US20250333397A1 (REMIX THERAPEUTICS INC., priority 2021, published 2025).
Read-outs that look alike come from different tables or passages of the source.

Legend:
Assay type in all cases: cell-based, human
MYB mRNA = experiment: RT-qPCR splicing assay, MYB canonical (CJ) and alternative (AJ) junction mRNA; conditions: Homo sapiens; for AC50: read-out: MYB AJ (AC50, increase in AJ mRNA)
How it was run: (§1)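 A673 or K562 cells were treated 24 h at 37 °C with an 11-point 3-fold compound dilution series, top dose 10 uM final, DMSO ≤0.25%. Lysates went to one-step RT-qPCR for canonical (CJ) and alternative-exon (AJ) junctions; ΔCt vs GAPDH, GUSB or PPIA, normalized to DMSO, as 2^(-ΔΔCt).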

SMN2 mRNA = experiment: RT-qPCR splicing assay panel, SMN2 canonical junction (CJ) mRNA; conditions: Homo sapiens, canonical junction (CJ) mRNA, RT-qPCR panel, Table 4A; read-out: SMN2, decrease in CJ mRNA levels, IC50
How it was run: as §1

Target C mRNA = experiment: RT-qPCR splicing assay panel, Target C canonical junction (CJ) mRNA; conditions: Homo sapiens, canonical junction (CJ) mRNA, RT-qPCR panel, Table 4A; read-out: Target C, decrease in CJ mRNA levels, IC50
How it was run: as §1

HTT mRNA = experiment: RT-qPCR splicing assay, HTT canonical (CJ) and alternative (AJ) junction mRNA; conditions: Homo sapiens; for AC50: read-out: HTT AJ (AC50, increase in AJ mRNA)
How it was run: as §1

[1] = 24 h, Table 3A, A673 or K562 cells, 24 h treatment
[2] = 24 h, Table 3A, A673 or K562 cells, 24 h treatment, read-out: MYB CJ (IC50, decrease in CJ mRNA)
[3] = canonical junction (CJ) mRNA, RT-qPCR panel, Table 4A, read-out: MYB, decrease in CJ mRNA levels, IC50
[4] = 24 h, Table 3A, A673 or K562 cells, 24 h treatment, read-out: HTT CJ (IC50, decrease in CJ mRNA)
[5] = canonical junction (CJ) mRNA, RT-qPCR panel, Table 4A, read-out: HTT, decrease in CJ mRNA levels, IC50

| Structure (SMILES) | AC50 (MYB mRNA; [1]) | IC50 (MYB mRNA; [2]) | IC50 (MYB mRNA; [3]) | IC50 (SMN2 mRNA) | IC50 (Target C mRNA) | AC50 (HTT mRNA; [1]) | IC50 (HTT mRNA; [4]) | IC50 (HTT mRNA; [5]) |
| --- | --- | --- | --- | --- | --- | --- | --- | --- |
| Cc1nnc(-c2cc(O)c(-c3ccc(N4CC[C@H](NC5CCC5)C4)nn3)cc2F)s1 [Compound 358] | 1000 to 10000 nM | 1000 to 10000 nM | 1000 to 10000 nM | 100 to 1000 nM | 1000 to 10000 nM | 1000 to 10000 nM | 100 to 1000 nM | 100 to 1000 nM |
| Cc1nnc(-c2cc(O)c(-c3ccc(N4CC[C@@H](NC5CCC5)C4)nn3)cc2F)s1 [Compound 359] | 1000 to 10000 nM | 1000 to 10000 nM | 1000 to 10000 nM | 100 to 1000 nM | 1000 to 10000 nM | 1000 to 10000 nM | 100 to 1000 nM | 100 to 1000 nM |
| CN(c1ccc(-c2ccc(-c3cn[nH]c3)cc2O)nn1)C1CC(C)(C)NC(C)(C)C1 [Compound 360] | < 100 nM | < 100 nM | < 100 nM | < 100 nM | < 100 nM | < 100 nM | < 100 nM | < 100 nM |
| CC1(C)CC(Oc2ccc(-c3cc(F)c(-c4cn[nH]c4)cc3O)nn2)CC(C)(C)N1 [Compound 361] | < 100 nM | 100 to 1000 nM | 100 to 1000 nM | < 100 nM | < 100 nM | < 100 nM | < 100 nM | < 100 nM |
| Oc1cc(-c2cnn3c2CCC3)ccc1-c1ccc(N2CCC(NC3CCC3)C2)nn1 (stereo not drawn) [Compound 362] | 100 to 1000 nM | 1000 to 10000 nM | 1000 to 10000 nM | 100 to 1000 nM | 100 to 1000 nM | 1000 to 10000 nM | 100 to 1000 nM | 100 to 1000 nM |
| COc1cc(-c2ccc(-c3ccc(N4CC[C@@H](NC5CCC5)C4)nn3)c(O)c2)ncn1 [Compound 364, 2-{6-[(3R)-3-(cyclobutylamino)pyrrolidin-1-yl]pyridazin-3-yl}-5-(6-methoxypyrimidin-4-yl)phenol] | 1000 to 10000 nM | 100 to 1000 nM | 100 to 1000 nM | < 100 nM | 100 to 1000 nM | 100 to 1000 nM | 100 to 1000 nM | 100 to 1000 nM |
| COc1cc(-c2ccc(-c3ccc(N4CC[C@](C)(NC5CCC5)C4)nn3)c(O)c2)ncn1 [Compound 365, 2-{6-[(3S)-3-(cyclobutylamino)-3-methylpyrrolidin-1-yl]pyridazin-3-yl}-5-(6-methoxypyrimidin-4-yl)phenol] | 100 to 1000 nM | 100 to 1000 nM | 100 to 1000 nM | < 100 nM | < 100 nM | < 100 nM | < 100 nM | < 100 nM |
| COc1cc(-c2ccc(-c3ccc(N4CC[C@@](C)(NC5CCC5)C4)nn3)c(O)c2)ncn1 [Compound 366, 2-{6-[(3R)-3-(cyclobutylamino)-3-methylpyrrolidin-1-yl]pyridazin-3-yl}-5-(6-methoxypyrimidin-4-yl)phenol] | 100 to 1000 nM | 100 to 1000 nM | 100 to 1000 nM | < 100 nM | 100 to 1000 nM | < 100 nM | < 100 nM | < 100 nM |
| Cc1cnc(-c2cc(O)c(-c3ccc(N4CCC(NC5CCC5)C4)nn3)cc2F)s1 (stereo not drawn) [Compound 367] | > 10000 nM | > 10000 nM | > 10000 nM | 1000 to 10000 nM | > 10000 nM | > 10000 nM | > 10000 nM | > 10000 nM |
| COc1nccc(-c2ccc(-c3ccc(N4CCC(NCC5CC5)C4)nn3)c(O)c2)n1 (stereo not drawn) [Compound 368] | 1000 to 10000 nM | 1000 to 10000 nM | 1000 to 10000 nM | 100 to 1000 nM | 1000 to 10000 nM | 100 to 1000 nM | 100 to 1000 nM | 100 to 1000 nM |
| Cc1cc(-c2ccc(-c3ccc(N4CCC(NCC5CC5)C4)nn3)c(O)c2)ncn1 (stereo not drawn) [Compound 369] | 1000 to 10000 nM | 1000 to 10000 nM | 1000 to 10000 nM | 100 to 1000 nM | 1000 to 10000 nM | 1000 to 10000 nM | 1000 to 10000 nM | 1000 to 10000 nM |
| Oc1cc(-c2cc(OC(F)F)ncn2)ccc1-c1ccc(N2CCC(NCC3CC3)C2)nn1 (stereo not drawn) [Compound 370] | > 10000 nM | > 10000 nM | > 10000 nM | 100 to 1000 nM | > 10000 nM | > 10000 nM | > 10000 nM | > 10000 nM |
